Measured values reported in the NIST ThermoML archive (doi:10.1016/j.fluid.2008.11.013).
± gives the expanded uncertainty stated by the source.

Key:
[1] = 101.33 kPa, Liquid, Vibrating tube method
[2] = excess molar enthalpy (molar enthalpy of mixing); xn = mol fraction of the nth substance listed; details: Liquid, Flow calorimetry

CCCCCCCC[N+]1(C)CCCC1.O=S(=O)([N-]S(=O)(=O)C(F)(F)F)C(F)(F)F showed a mass density ([1]; 298.15 K) of 1291.2 ± 12 kg/m3, a mass density ([1]; 303.15 K) of 1286.9 ± 12 kg/m3 and a mass density ([1]; 308.14 K) of 1283 ± 12 kg/m3. The mass density ([1]; 313.15 K) was 1279.1 ± 12 kg/m3, the mass density ([1]; 318.15 K) was 1275.1 ± 11 kg/m3 and the mass density ([1]; 323.14 K) was 1271.4 ± 11 kg/m3. It also gave a mass density ([1]; 328.14 K) of 1267.5 ± 11 kg/m3, a mass density ([1]; 333.14 K) of 1263.7 ± 11 kg/m3 and a mass density ([1]; 338.14 K) of 1259.7 ± 11 kg/m3. For the same compound, the mass density ([1]; 343.14 K) was 1255.7 ± 11 kg/m3 and the mass density ([1]; 348.15 K) was 1251.7 ± 11 kg/m3.
With CCCCCC[N+]1(C)CCCC1.O=S(=O)([N-]S(=O)(=O)C(F)(F)F)C(F)(F)F the mass density ([1]; 278.16 K) was 1352.1 ± 13 kg/m3, the mass density ([1]; 283.14 K) was 1347.7 ± 13 kg/m3 and the mass density ([1]; 288.14 K) was 1343.4 ± 13 kg/m3. The mass density ([1]; 293.15 K) was 1339.5 ± 13 kg/m3, the mass density ([1]; 298.14 K) was 1335.3 ± 13 kg/m3 and the mass density ([1]; 303.14 K) was 1331.1 ± 12 kg/m3. It also gave a mass density ([1]; 308.14 K) of 1326.8 ± 12 kg/m3, a mass density ([1]; 313.14 K) of 1322.6 ± 12 kg/m3 and a mass density ([1]; 318.14 K) of 1318.3 ± 12 kg/m3. The mass density ([1]; 323.14 K) was 1314.1 ± 12 kg/m3, the mass density ([1]; 328.14 K) was 1309.9 ± 12 kg/m3 and the mass density ([1]; 333.14 K) was 1305.6 ± 12 kg/m3. The mass density ([1]; 338.15 K) was 1301.4 ± 12 kg/m3 and the mass density ([1]; 343.14 K) was 1297.1 ± 12 kg/m3.
Work on CCCCCC[N+]1(C)CCCC1.O=S(=O)([N-]S(=O)(=O)C(F)(F)F)C(F)(F)F + CCCCCC yielded an excess molar enthalpy ([2]; 363.15 K, 1720 kPa, x2 = 0.067) of 0.0295 ± 0.000717 kcal/mol, an excess molar enthalpy ([2]; 363.15 K, 1720 kPa, x2 = 0.1285) of 0.0574 ± 0.00129 kcal/mol and an excess molar enthalpy ([2]; 363.15 K, 1720 kPa, x2 = 0.1852) of 0.0807 ± 0.00177 kcal/mol. It also gave an excess molar enthalpy ([2]; 363.15 K, 1720 kPa, x2 = 0.2375) of 0.1 ± 0.0022 kcal/mol, an excess molar enthalpy ([2]; 363.15 K, 1720 kPa, x2 = 0.2859) of 0.114 ± 0.00239 kcal/mol and an excess molar enthalpy ([2]; 363.15 K, 1720 kPa, x2 = 0.3309) of 0.116 ± 0.00263 kcal/mol. It also gave an excess molar enthalpy ([2]; 363.15 K, 1720 kPa, x2 = 0.483) of 0.0924 ± 0.00203 kcal/mol and an excess molar enthalpy ([2]; 363.15 K, 1720 kPa, x2 = 0.6514) of 0.0629 ± 0.00141 kcal/mol.
For C=CCCCCC [1-heptene] + CCCC[N+]1(C)CCCC1.O=S(=O)([N-]S(=O)(=O)C(F)(F)F)C(F)(F)F, the excess molar enthalpy ([2]; 413.15 K, 2239 kPa, x1 = 0.0525) was 0.0322 ± 0.000765 kcal/mol, the excess molar enthalpy ([2]; 413.15 K, 2239 kPa, x1 = 0.1022) was 0.0621 ± 0.00139 kcal/mol and the excess molar enthalpy ([2]; 413.15 K, 2239 kPa, x1 = 0.1492) was 0.0898 ± 0.00196 kcal/mol. For the same compound, the excess molar enthalpy ([2]; 413.15 K, 2239 kPa, x1 = 0.2762) was 0.113 ± 0.00239 kcal/mol, the excess molar enthalpy ([2]; 413.15 K, 2239 kPa, x1 = 0.3509) was 0.1 ± 0.00217 kcal/mol and the excess molar enthalpy ([2]; 413.15 K, 2239 kPa, x1 = 0.4189) was 0.0913 ± 0.00201 kcal/mol. The excess molar enthalpy ([2]; 413.15 K, 2239 kPa, x1 = 0.481) was 0.0807 ± 0.00177 kcal/mol, the excess molar enthalpy ([2]; 413.15 K, 2239 kPa, x1 = 0.5904) was 0.0622 ± 0.00139 kcal/mol and the excess molar enthalpy ([2]; 413.15 K, 2239 kPa, x1 = 0.6838) was 0.0501 ± 0.00112 kcal/mol. For the same compound, the excess molar enthalpy ([2]; 413.15 K, 2239 kPa, x1 = 0.7643) was 0.035 ± 0.000813 kcal/mol, the excess molar enthalpy ([2]; 413.15 K, 2239 kPa, x1 = 0.8664) was 0.0204 ± 0.000526 kcal/mol and the excess molar enthalpy ([2]; 413.15 K, 2239 kPa, x1 = 0.9511) was 0.00911 ± 0.000287 kcal/mol.
